Consider five compounds from paper PMC3557573 (Cancer chemotherapy and pharmacology, 2012).

Data set [1] relates to all 3 PKD isoforms. Conditions: cited from earlier work.
Data set [2] concerns PANC-1 pancreatic cancer xenograft. Conditions: po 80 mg/kg qd × 21 ref 31; cited from earlier work.
The test system of data set [3] is CFPAC-1 xenografts. Put plainly: Efficacy study in mice bearing CFPAC-1 xenografts. The class given is in vivo, C.B.-17 SCID mice.
A short description of data set [4]: Urinary and fecal excretion. As to conditions: for metabolite excreted in urine, % of dose: assuming equivalent UV absorption.
Data set [5] can be described thus: β-glucuronidase treatment of urine. The class given is in vitro ADME, mice. Conditions: 0-6 h urine, 37 °C, 24 h, 10,000 units.
In data set [6] the test system is PANC-1 pancreatic cancer cells. Put plainly: MTT assay, in vitro cytotoxicity. Conditions: PANC-1, 72 h. The data set is classed as cell-based, human. Background: Tetrazolium assays rely on reduction of a dye to a coloured formazan, in cell work by metabolically active cells.
Data set [7] in a line: Plasma protein binding, Rapid Equilibrium Dialysis. The class given is in vitro ADME.
Data set [8] can be described thus: Partial mass balance of kb-NB142-70. The class given is in vivo, mouse. As to conditions: 5 min.
Data set [9] is classed as in vivo, C.B.-17 SCID mice.
The subject of data set [10] is CFPAC-1 pancreatic cancer cells. Nature of the data set: MTT assay, in vitro cytotoxicity. Conditions: CFPAC-1, 72 h. The class given is cell-based, human.
Data set [11] deals with PC-3 human androgen-independent prostate cancer cells. Conditions: PC-3 ref 34; cited from earlier work.
For data set [12], the system named is PC-3 xenografts. Nature of the data set: Efficacy study in mice bearing PC-3 xenografts. The data set is classed as in vivo, C.B.-17 SCID mice. Conditions: 25 mg/kg/day iv qdx5, PC-3 xenografts.
Data set [13] concerns PC-3 human androgen independent prostate cancer cells. Put plainly: MTT assay, in vitro cytotoxicity. The data set is classed as cell-based. As to conditions: PC-3, 72 h.
The conditions of data set [14]: cited from earlier work.
The mark [15] stands for this setting: day 6, 50 mg/kg q3dx3, CFPAC-1 xenografts.

One may read the IC50 as the point on the concentration scale where inhibition reaches its midpoint. For orientation: clearance means the volume of plasma or blood freed of the substance per unit of time. One may read the Cmax as the maximum level reached in the sampled fluid or tissue. The term EC50 denotes the concentration giving half of the maximal effect.

Values joined by “and” are separate entries in the source; they are usually repeats but may differ in a detail not shown here. Equal entries are not always repeated. Where two headings read alike, the source gives them in different places. Where only a bound is given, the exact number is not on record here.

As for `O=C1NCCCc2c1oc1ccc(O)cc21` [CID755673, reference compound], the IC50 in data set [1] (against all 3 PKD isoforms ref 33) was 0.2 to 0.3 µM.

Turning to `CC[C@@H](N)CNc1ccnc(-c2cc(-c3cnn(C)c3)ccc2O)n1.Cl.Cl` [CRT0066101], the “growth of PANC-1 xenograft” value in data set [2] was “slowed the growth”.

Take `Nc1ccn([C@@H]2O[C@H](CO)[C@@H](O)C2(F)F)c(=O)n1` [gemcitabine]: the tumor doubling time in data set [3] (50 mg/kg q3dx3, CFPAC-1 xenografts, control 2.2 days) was determined as 10.4 days. Further, in [3] (setting [15]), the “T/C of mean tumor volume” value was found to be 22% and the mean tumor volume turned out to be 335 mm^3.

With `O=C1NCCSc2c1sc1ccc(O)cc21` [kb-NB142-70], in data set [4] (0-6 h urine), the “urinary excretion of parent, % of dose” value is given as 2.5% and the “metabolite excreted in urine, % of dose” value is “approximately 7.6%”. Further, in [4] (6-24 h urine), the “urinary excretion of parent, % of dose” value turned out to be 0.1% and the “metabolite excreted in urine, % of dose” value is recorded as ~1.2%. The “fecal excretion, % of dose” value in data set [4] (mouse, in vivo) came out at 0.67%. Besides, in [5], the “increase in parent on incubation of urine with β-glucuronidase” value is reported as ~ 410%. This compound showed an IC50 in [6] of 34 ± 7 µM. In addition, the plasma protein bound in data set [7] (0.3 μg/mL) came to 78%. The plasma protein bound in data set [7] (3 μg/mL) is on record as 78%. In addition, the “administered dose detectable in plasma and collected tissues as parent compound” value in data set [8] is 12.5%. In addition, in data set [8] (parent plus metabolite), the “total administered dose detectable in plasma and collected tissues” value was 13.6 % of the dose. Further, the “potency relative to CID755673” value in data set [1] is listed as ≥ 2 fold. For the same compound, in data set [9] (25 mg/kg iv), the “AUC0→∞ Brain” value came to 85 nmol·min/g, the “AUC0→∞ Fat” value is reported as 1681 nmol·min/g, the “AUC0→∞ Heart” value came to 236 nmol·min/g and the “AUC0→∞ Kidney” value amounted to 1712 nmol·min/g. For the same compound, in data set [9] (25 mg/kg iv), the “AUC0→∞ Liver” value was 266 nmol·min/g, the “AUC0→∞ Lung” value was 377 nmol·min/g, the “AUC0→∞ Plasma” value is 409 nmol·min/mL and the “AUC0→∞ RBC” value is given as 288 nmol·min/mL. For the same compound, in [9] (25 mg/kg iv), the “AUC0→∞ Skeletal Muscle” value is listed as 748 nmol·min/g, the “AUC0→∞ Spleen” value turned out to be 288 nmol·min/g, the “AUC0→∞ Tumor” value came out at 731 nmol·min/g and the AUC for plasma was 409 nmol·min/mL. In [9] (25 mg/kg iv), this compound displayed an AUC for tumor of 731 nmol·min/mg, an AUC in fat of 1681 nmol·min/g, a clearance of 14.6 L/h/kg and a plasma half-life of 6 min. The volume of distribution entry in [9] (25 mg/kg iv) was “approximately 2744 mL/kg”. For the same compound, in data set [9] (25 mg/kg iv, at 5 min), the “kidney Cmax” value is 63 nmol/g and the “lung Cmax” value is listed as 27 nmol/g. Also, in [9] (25 mg/kg iv, observed at 10 min), the “PC-3 xenograft (tumor) Cmax” value is 11.8 nmol/g and 12 nmol/g. In data set [9] (25 mg/kg iv, brain concentrations lower than plasma), the “blood brain barrier crossing” value is on record as “appeared to cross the blood brain barrier”. Besides, in [9] (5 min after 25 mg/kg iv), the Brain concentration stood at 6.34 ± 1.72 nmol/g, the Fat concentration worked out at 9.92 ± 0.52 nmol/g, the Heart concentration was determined as 14.5 ± 2.0 nmol/g and the Kidney concentration came out at 63.4 ± 13.7 nmol/g. In data set [9] (5 min after 25 mg/kg iv), this compound gave a Liver concentration of 23.4 ± 1.1 nmol/g, a Lung concentration of 26.8 ± 3.3 nmol/g, a Plasma concentration of 36.9 ± 8.3 µM and an RBC concentration of 23.6 ± 1.7 nmol/mL. In addition, in data set [9] (5 min after 25 mg/kg iv), the “Skeletal Muscle concentration” value was found to be 18.4 ± 4.6 nmol/g, the Spleen concentration was determined as 21.2 ± 3.8 nmol/g and the Tumor concentration was determined as 5.62 ± 1.63 nmol/g. In data set [9] (10 min after 25 mg/kg iv), this compound returned a Brain concentration of 5.07 ± 0.57 nmol/g, a Fat concentration of 8.93 ± 1.71 nmol/g, a Heart concentration of 13.1 ± 2.5 nmol/g and a Kidney concentration of 48.9 ± 15.8 nmol/g. For the same compound, in [9] (10 min after 25 mg/kg iv), the Liver concentration was 6.41 ± 0.56 nmol/g, the Lung concentration was determined as 16.7 ± 1.2 nmol/g, the Plasma concentration amounted to 23.4 ± 7.4 µM and the RBC concentration came out at 13.2 ± 2.7 nmol/mL. In data set [9] (10 min after 25 mg/kg iv), the “Skeletal Muscle concentration” value is 15.5 ± 4.0 nmol/g, the Spleen concentration stood at 12.6 ± 2.5 nmol/g and the Tumor concentration is 11.8 ± 4.0 nmol/g. In [9] (15 min after 25 mg/kg iv), this compound showed a Brain concentration of 2.40 ± 0.40 nmol/g, a Fat concentration of 6.65 ± 0.74 nmol/g, a Heart concentration of 6.23 ± 1.96 nmol/g and a Kidney concentration of 27.0 ± 12.4 nmol/g. Also, in data set [9] (15 min after 25 mg/kg iv), the Liver concentration was determined as 8.41 ± 0.29 nmol/g, the Lung concentration is 10.4 ± 4.9 nmol/g, the Plasma concentration worked out at 10.3 ± 3.7 µM and the RBC concentration stood at 6.94 ± 2.26 nmol/mL. Further, in data set [9] (15 min after 25 mg/kg iv), the “Skeletal Muscle concentration” value amounted to 9.45 ± 2.47 nmol/g, the Spleen concentration amounted to 8.03 ± 3.39 nmol/g and the Tumor concentration amounted to 5.22 ± 3.60 nmol/g. Also, in data set [9] (30 min after 25 mg/kg iv), the Brain concentration worked out at 0.84 ± 0.11 nmol/g, the Fat concentration came out at 2.80 ± 0.45 nmol/g, the Heart concentration turned out to be 2.60 ± 0.53 nmol/g and the Kidney concentration worked out at 10.1 ± 2.0 nmol/g. In data set [9] (30 min after 25 mg/kg iv), the Lung concentration was determined as 2.95 ± 1.69 nmol/g, the Plasma concentration was 2.0 ± 1.9 µM, the RBC concentration stood at 2.31 ± 1.70 nmol/mL and the “Skeletal Muscle concentration” value was found to be 2.28 ± 0.56 nmol/g. In addition, the Tumor concentration in [9] (30 min after 25 mg/kg iv) amounted to 4.22 ± 1.92 nmol/g. In addition, in data set [9] (60 min after 25 mg/kg iv), the Fat concentration came to 2.62 ± 1.35 nmol/g, the Kidney concentration is 2.87 ± 0.56 nmol/g, the “Skeletal Muscle concentration” value is 1.05 ± 0.02 nmol/g and the Tumor concentration amounted to 1.24 ± 0.95 nmol/g. Further, in [9] (120 min after 25 mg/kg iv), the Fat concentration was determined as 0.77 ± 0.13 nmol/g, the Kidney concentration was found to be 3.76 ± 0.82 nmol/g, the “Skeletal Muscle concentration” value stood at 0.95 ± 0.01 nmol/g and the Tumor concentration is 0.79 ± 0.32 nmol/g. For the same compound, in data set [9] (240 min after 25 mg/kg iv), the Fat concentration was 0.45 ± 0.06 nmol/g, the Kidney concentration worked out at 1.78 ± 0.29 nmol/g, the “Skeletal Muscle concentration” value was determined as 1.00 ± 0.01 nmol/g and the Tumor concentration is 0.57 ± 0.60 nmol/g. Besides, in [9] (360 min after 25 mg/kg iv), the Fat concentration was 0.36 ± 0.03 nmol/g, the “Skeletal Muscle concentration” value turned out to be 0.97 ± 0.06 nmol/g and the Tumor concentration is 1.21 ± 0.78 nmol/g. The Fat concentration in [9] (960 min after 25 mg/kg iv) was 0.85 ± 0.42 nmol/g. The compound also yielded a Fat concentration in data set [9] (1440 min after 25 mg/kg iv) of 0.44 ± 0.07 nmol/g. Moreover, in data set [9] (read-out: Plasma Cmax, 25 mg/kg iv, observed at 5 min), the peak concentration (Cmax) is 36.9 µM and 37 µM. This compound also yielded an IC50 in data set [10] of 5.2 ± 0.1 µM. Besides, the EC50 in [11] was 8 µM. In data set [12], the “effect on the growth of the tumor xenografts” value was “no effect” and the “toxicity or changes in body weights” value was “did not result in any toxicity or changes in the body weights”. Also, in data set [13], half-maximal inhibition (IC50) was put at 21 ± 6 µM.

Take `COc1ncc2sc3c(c2n1)SCCNC3=O` [kmg-NB4-23]: the aqueous solubility entry in data set [14] is on record as “poor”.
